This experiment has as its system 786-O (renal cell carcinoma) cells. The experiment is described as follows: Cell viability (CellTiter Glo) assay, inhibition of 786-O cell proliferation. Format: cell-based. To be noted: read-out: IC50, inhibition of 786-O cell proliferation.
Where [1] appears, read: Homo sapiens, 786-0, 786-O cells, 72 hours, CellTiter Glo.

pIC50: −log10 of the molar value. Like-named read-outs stand apart in the source and are kept apart here.

`CC(C)N(CC(F)(F)F)C(=N)OCc1ncc2c(n1)N(c1ccc(Oc3ccccc3)cc1)CCO2` [Compound E125]: the pIC50 (Homo sapiens, 786-0, 72 h) was 5.30 to 6.30.
`CC(C)N(CC(F)(F)F)C(=N)OCc1ncc2c(n1)N(c1ccc(OC3CCCCC3)nc1)CCO2` [Compound E126]: the pIC50 (Homo sapiens, 786-0, 72 h) was 5.30 to 6.30.
`CC(C)N(CC(F)(F)F)C(=N)OCc1ncc2c(n1)N(c1ccc(OC3CCCCC3)nc1)CC2(C)C` [Compound E127]: the pIC50 under setting [1] was 6.30 to 7.00.
Take `CCC(CC)Oc1ccc(N2CC(C)(C)c3cnc(COC(=N)N(CC(F)(F)F)C(C)C)nc32)nc1` [Compound E128]: the pIC50 under setting [1] was 6.30 to 7.00.
Same read-out and setting: as for `CC(C)N(CC(F)(F)F)C(=N)OCc1ncc2c(n1)N(c1ccc(N3CCOCC3)nc1)CC2(C)C` [Compound E129], the figure is 6.30 to 7.00.
Consider `CC(C)Oc1cnc(COC(=N)N(CC(F)(F)F)C(C)C)nc1Nc1ccc(Oc2ccccc2)cc1` [Compound E131], for which the pIC50 under setting [1] was 6.30 to 7.00.
Regarding `CC(C)N(CC(F)(F)F)C(=N)OCc1ncc2c(n1)N(c1ccc(OC3CCCC3)nc1)C(=O)C21CC1` [Compound E132], the pIC50 under setting [1] is 6.30 to 7.00.
With `CC(C)Oc1ccc(N2C(=O)C3(CC3)c3cnc(COC(=N)N(CC(F)(F)F)C(C)C)nc32)cn1` [Compound E133], the pIC50 under setting [1] was 5.30 to 6.30.
Same read-out and setting: as for `CC(C)N(CC(F)(F)F)C(=N)OCc1ncc2c(n1)N(C1CCC(Oc3ccccn3)CC1)C(=O)C21CC1` (stereo not drawn) [Compound E134], the figure is 5.30 to 6.30.
On to `CC(C)N(CC(F)(F)F)C(=N)OCc1ncc2c(n1)N(c1ccc(OC3CCCCC3)cn1)CC2(C)C` [Compound E135], for which the pIC50 under setting [1] is 5.30 to 6.30.
Take `CN(CC(F)(F)F)C(=N)OCc1ncc2c(n1)N(c1ccc(Oc3ccccc3)cc1)CC2(C)C` [Compound E136]: the pIC50 under setting [1] was over 7.00.
Same read-out and setting: with `CC(C)N(CC(F)(F)F)C(=N)OCc1ncc2c(n1)N(c1ccc(Oc3ccccc3)cc1)CC21CC1` [Compound E137] the figure was over 7.00.
With `CC(C)N(CC(F)(F)F)C(=N)OCc1ncc(C(C)(C)O)c(Nc2ccc(Oc3ccccc3)cc2)n1` [Compound E138], the pIC50 under setting [1] was 6.30 to 7.00.
On the same count and under the same terms, with `CC(C)N(CC(F)(F)F)C(=N)OCc1ncc2c(n1)N(c1ccc(OC3CC3)nc1)C(=O)C21CC1` [Compound E139] the figure was 5.30 to 6.30.
In the case of `CN1CCN=C1OCc1ncc2c(n1)N(c1ccc(Oc3ccccc3)cc1)CC2(C)C` [Compound E140], the pIC50 (Homo sapiens, 786-0, 72 h) was 5.30 to 6.30.
As to `CC(C)N(CC(F)(F)F)C(=N)OCc1ncc2c(n1)N(c1ccc(N3CCOCC3)nc1)CC21CC1` [Compound E141], the pIC50 under setting [1] was 6.30 to 7.00.
The same measure, in the same setting: as for `CC(C)N(CC(F)(F)F)C(=N)OCc1ncc2c(n1)N(c1cccc(Oc3ccccc3)c1)CC21CC1` [Compound E142], the figure is 5.30 to 6.30; as for `CC(C)N(CC(F)(F)F)C(=N)OCc1ncc2c(n1)N(c1ccccc1Oc1ccccc1)CC21CC1` [Compound E143], 6.30 to 7.00; as for `CC(C)N(CC(F)(F)F)C(=N)OCc1ncc2c(n1)N(c1cccc(OC3CCOCC3)c1)CC21CC1` [Compound E144], 5.30 to 6.30.
As to `CC(C)N(CC(F)(F)F)C(=N)OCc1ncc2c(n1)N(c1ccc(OC3CCOCC3)cc1)CC21CC1` [Compound E145], the pIC50 under setting [1] was 6.30 to 7.00.
Still for that read-out and setting: as for `N=C(OCc1ncc2c(n1)N(c1ccc(OC3CCOCC3)nc1)CC21CC1)N1CC(F)(F)C1` [Compound E146], the figure is 5.30 to 6.30.
With `CN(C)C(=N)OCc1ncc2c(n1)N(c1ccc(OC3CCOCC3)nc1)CC21CC1` [Compound E147], under “Homo sapiens, 786-0, 72 h”, the pIC50 is under 5.30.
As to `CC(C)N(CC(F)(F)F)C(=N)OCc1ncc2c(n1)N(c1ccc(N3CCOCC3)nc1)C(=O)CC2` [Compound E148, 1-isopropyl-2-[[8-(6-morpholino-3-pyridyl)-7-oxo-5,6-dihydropyrido[2,3-d]pyrimidin-2-yl]methyl]-1-(2,2,2-trifluoroethyl)isourea], the pIC50 under setting [1] was under 5.30.
Same read-out and setting: with `CC(C)N(CC(F)(F)F)C(=N)OCc1ncc2c(n1)N(c1ccc(N3CCOCC3)nc1)C(=O)C21CC1` [Compound E149] the figure was 5.30 to 6.30; with `CC(C)N(CC(F)(F)F)C(=N)OCc1ncc2c(n1)N(c1ccc(N3CCCCC3)nc1)C(=O)C21CC1` [Compound E150], 6.30 to 7.00.
Same read-out and setting: as for `CN1CCCN=C1OCc1ncc2c(n1)N(c1ccc(Oc3ccccc3)cc1)CC2(C)C` [Compound E151, 5,5-dimethyl-2-(((1-methyl-1,4,5,6-tetrahydropyrimidin-2-yl)oxy)methyl)-7-(4-phenoxyphenyl)-6,7-dihydro-5H-pyrrolo[2,3-d]pyrimidine], the figure is under 5.30; as for `CNc1nc(COC(=N)N2CCCC2C(F)(F)F)nc2c1C(C)(C)C(=O)N2c1ccc(N2CCOCC2)cc1` (stereo not drawn) [Compound E152, [5,5-dimethyl-4-(methylamino)-7-(4-morpholinophenyl)-6-oxo-pyrrolo[2,3-d]pyrimidin-2 yl]methyl 2-(trifluoromethyl)pyrrolidine-1-carboximidate], over 7.00.
The same measure, in the same setting: with `CNc1nc(COC(=N)N2CCCCC2C(F)(F)F)nc2c1C(C)(C)C(=O)N2c1ccc(N2CCOCC2)cc1` (stereo not drawn) [Compound E153] the figure was over 7.00.
As for `[2H]C([2H])(OC(=N)N(CC(F)(F)F)C(C)C)c1nc(N)c2c(n1)N(c1ccc(OC3CCCCC3)cc1)CC2(C)C` [Compound E154, ethyl (4-amino-7-(4-(cyclohexyloxy)phenyl)-5,5-dimethyl-6,7-dihydro-5H-pyrrolo[2,3-d]pyrimidin-2-yl)methyl-d2 isopropyl(2,2,2-trifluoroethyl)carbamimidate], the pIC50 under setting [1] was over 7.00.
For `[2H]C([2H])(OC(=N)N1CCCCC1C(F)(F)F)c1nc(N)c2c(n1)N(c1ccc(OC3CCCCC3)cc1)CC2(C)C` (stereo not drawn) [Compound E155], the pIC50 under setting [1] is over 7.00.
Still for that read-out and setting: as for `CC(C)N(CC(F)(F)F)C(=N)OCc1ncc(C2CCCCO2)c(Nc2ccc(N3CCOCC3)nc2)n1` (stereo not drawn) [Compound E156, (4-((6-morpholinopyridin-3-yl)amino)-5-(tetrahydro-2H-pyran-2-yl)pyrimidin-2-yl)methyl isopropyl], the figure is 5.30 to 6.30.
Regarding `CC(C)N(CC(F)(F)F)C(=N)OCc1ncc2c(n1)N(c1ccc(N3CCOCC3)cc1)C(=O)C21CCOCC1` [Compound E157, (7′-(4-morpholinophenyl)-6′-oxo-2,3,5,6,6′,7′-hexahydrospiro[pyran-4,5′-pyrrolo[2,3-d]pyrimidin]-2′-yl)methyl isopropyl(2,2,2-trifluoroethyl)carbamimidate], the pIC50 under setting [1] is under 5.30.
`CC(C)N(CC(F)(F)F)C(=N)OCc1nc(Cl)c2c(n1)N(c1ccc(OC3CCCCC3)nc1)C(=O)C2(C)C` [Compound E158, (4-chloro-7-(6-(cyclohexyloxy)pyridin-3-yl)-5,5-dimethyl-6-oxo-6,7-dihydro-5H-pyrrolo[2,3-d]pyrimidin-2-yl)methyl isopropyl(2,2,2-trifluoroethyl)carbamimidate]: the pIC50 under setting [1] was 5.30 to 6.30.
On to `CC(C)N(CC(F)(F)F)C(=N)OCc1ncc2c(n1)N(c1ccc(C3CCCCC3)cc1)C(=O)C21CC1` [Compound E159], for which the pIC50 under setting [1] is 6.30 to 7.00.
On the same count and under the same terms, as for `CC(C)N(CC(F)(F)F)C(=N)OCc1ncc2c(n1)N(c1ccc(C3CCCCC3)nc1)C(=O)C21CC1` [Compound E160], the figure is 5.30 to 6.30; as for `CCCCOc1ccc(N2C(=O)C3(CC3)c3cnc(COC(=N)N(CC(F)(F)F)C(C)C)nc32)cc1` [Compound E161], 6.30 to 7.00.
In the case of `CC(C)N(CC(F)(F)F)C(=N)OCc1ncc2c(n1)N(c1ccc(N3CCOCC3)cc1)C(=O)C21CC1` [Compound E162], the pIC50 under setting [1] was 5.30 to 6.30.
On to `CC(C)N(CC(F)(F)F)C(=N)OCc1ncc2c(n1)N(c1ccc(N3CCCCC3)cc1)C(=O)C21CC1` [Compound E163], for which the pIC50 under setting [1] was 6.30 to 7.00.
As for `CCCCCCOc1ccc(N2C(=O)C3(CC3)c3cnc(COC(=N)N(CC(F)(F)F)C(C)C)nc32)cc1` [Compound E164], under setting [1], the pIC50 is over 7.00.
On to `CC(C)N(CC(F)(F)F)C(=N)OCc1ncc2c(n1)N(c1ccc(O)cc1)C(=O)C21CC1` [Compound E165], for which the pIC50 under setting [1] was under 5.30.
`CNc1nc(COC(=N)N(CC(F)(F)F)C(C)C)nc2c1C1(CC1)C(=O)N2c1ccc(N2CCCCC2)nc1` [Compound E166]: the pIC50 under setting [1] was over 7.00.
`CC(C)N(CC(F)(F)F)C(=N)OCc1nc(N)c2c(n1)N(c1ccc(OC3CCCCC3)nc1)C(=O)C2(C)C` [Compound E167]: the pIC50 under setting [1] was over 7.00.
As to `CNc1nc(COC(=N)N(CC(F)(F)F)C(C)C)nc2c1C(C)(C)C(=O)N2c1ccc(OC2CCCCC2)nc1` [Compound E168], under setting [1], the pIC50 was over 7.00.
As for `CNc1nc(COC(=N)N(C)C2COC2)nc2c1C(C)(C)C(=O)N2c1ccc(OC2CCCCC2)cc1` [Compound E169], under setting [1], the pIC50 is 6.30 to 7.00.
`CC1(C)C(=O)N(c2ccc(N3CCOCC3)cc2)c2nc(COC(=N)N3CCCC3C(F)(F)F)nc(N)c21` (stereo not drawn) [Compound E170]: the pIC50 under setting [1] was over 7.00.
For `CNc1nc(COC(=N)N2CCCCC2C(F)(F)F)nc2c(-c3ccc(N4CCOCC4)cc3OC)csc12` (stereo not drawn) [Compound E171], the pIC50 under setting [1] was over 7.00.
In the case of `CC1(C)C(=O)N(c2ccc(N3CCOCC3)cc2)c2nc(COC(=N)N3CCCCC3C(F)(F)F)nc(N)c21` (stereo not drawn) [Compound E172], the pIC50 (786-O cells, 72 hours, CellTiter Glo) was over 7.00.
With `CNc1nc(COC(=N)N2CCCC2C(F)(F)F)nc2c1C(C)(C)C(=O)N2c1ccc(OC2CCCCC2)cc1` (stereo not drawn) [Compound E173], the pIC50 under setting [1] was over 7.00.
For `CNc1nc(COC(=N)N2CCCCC2C(F)(F)F)nc2c1C(C)(C)C(=O)N2c1ccc(OC2CCCCC2)cc1` (stereo not drawn) [Compound E174], the pIC50 under setting [1] is over 7.00.
With `CCNc1nc(COC(=N)N2CCCC2C(F)(F)F)nc2c1C(C)(C)C(=O)N2c1ccc(N2CCOCC2)cc1` (stereo not drawn) [Compound E175], the pIC50 under setting [1] was over 7.00.
For the molecule `CC(C)Nc1nc(COC(=N)N2CCCC2C(F)(F)F)nc2c1C(C)(C)C(=O)N2c1ccc(N2CCOCC2)cc1` (stereo not drawn) [Compound E176, (4-(Isopropylamino)-5,5-dimethyl-7-(4-morpholinophenyl)-6-oxo-6,7-dihydro-5H-pyrrolo[2,3-d]pyrimidin-2-yl)methyl 2-(trifluoromethyl)pyrrolidine-1-carbimidate], under “Homo sapiens, 786-0, 72 h”, the pIC50 was over 7.00.

For the origin of these results see patent US20250304571A1, “BIOLOGICALLY ACTIVE COMPOUNDS AND METHODS THEREOF” (Suzhou Keen Therapeutics Co., Ltd., priority 2022, published 2025).
